Literature values, collected in publication PMC11599114 (Viruses, 2024).
Where two headings read alike, the source gives them in different places.

Legend:
SARS-CoV-2 [1] = settings: SARS-CoV-2, Vero
Measles virus(MeV) = settings: VERO/hSLAM
[2] = system: influenza virus(H1N1,VR-1894); settings: H1N1 VR-1894, MDKC
HSV-1 = settings: HSV-1, Vero
[3] = system: human parainfluenza virus 3 (HPIV3); set-up: method as in ref 16973588; settings: HPIV3 fusion, HeLa
[4] = system: human parainfluenza virus 3 (HPIV3); set-up: method as in ref 16973588; settings: HPIV3 infection, HeLa
SARS-CoV = settings: for inhibition: 100 µM
influenza A virus(H1N1) = system: influenza A virus(H1N1); set-up: method as in 2 sources; settings: A(H1N1), MDCK
HCoV-OC43 = settings: HCoV-OC43, Vero
HSV-2 = settings: HSV-2, Vero
HCoV-229E = settings: Vero
SARS-CoV-2 [5] = system: SARS-CoV-2; set-up: method as in ref 34328726; settings: for IC50: SARS-CoV-2 entry, HEK293T/ACE2
A/Roma-ISS/02/08 H1N1 = settings: A/Roma-ISS/02/08 H1N1, MDCK
INFVA = system: INFVA; set-up: method as in AVPdb; settings: ref AVPdb; for IC50: virus entry
Hendra virus(HeV) [6] = system: Hendra virus(HeV)
Hendra virus(HeV) [7] = system: Hendra virus(HeV); remark: listed apart in the source

For CFVPWFSKFlXRIL [DRAVPe00391], the IC90 (SARS-CoV-2 [1]) is listed as 1.89 µM, the IC90 (Measles virus(MeV)) is listed as 31.1 µM and the IC90 [2] is listed as 5.89 µM. For the same substance, the IC90 (HSV-1) was 2.19 µM.

For CGGFVPWFSKFlXRIL [DRAVPe00392], the IC90 (SARS-CoV-2 [1]) is given as 10.2 µM, the IC90 (Measles virus(MeV)) is given as 49.9 µM and the IC90 [2] is given as 9.9 µM. For the same substance, the IC90 (HSV-1) was 8.21 µM.

In the case of “DITLNNSVALDPIDISIELNKAKSDLEESKEWIRRSNQKLDSIGN [DRAVPe01310]”, the IC50 [3] is given as 0.5 µM and the IC50 [4] is given as 0.5 µM.

For EEQAKTFLDK [DRAVPe01627], the inhibition (SARS-CoV) is given as 25%.

For “EEQAKTFLDKFNHEAEDLFYQSSGLGKGDFR [DRAVPe01632]”, the IC50 (SARS-CoV) is listed as 0.1 µM.

For FINGRWDSQCHRFSNGAIACA [DRAVPe01800], the IC50 (influenza A virus(H1N1)) is given as 6.6 µg/mL.

For FVPWFSKFlGRIL [DRAVPe00377], the IC90 (SARS-CoV-2 [1]) is given as 12.1 µM, the IC90 (HCoV-OC43) is given as 15 µM and the IC90 (HSV-2) is given as 16.7 µM. For the same substance, the IC90 (HCoV-229E) was 30.1 µM and the IC90 (HSV-1) was 18.7 µM.

For FVPWFSKFlPRIL [DRAVPe00378], the IC90 (SARS-CoV-2 [1]) is given as 14 µM, the IC90 (HCoV-OC43) is given as 24.1 µM and the IC90 (HSV-2) is given as 19.2 µM. The IC90 (HSV-1) was 18.8 µM.

For FVPWFSKFlWRIL [DRAVPe00385], the IC90 (SARS-CoV-2 [1]) is given as 27.7 µM, the IC90 (HCoV-OC43) is given as 24.2 µM and the IC90 (HSV-2) is given as 12.5 µM. The IC90 (HCoV-229E) was 50 µM and the IC90 (HSV-1) was 8.25 µM.

For FVPWFSKFlXRIL [DRAVPe00380], the IC90 (SARS-CoV-2 [1]) is listed as 25 µM, the IC90 (HCoV-OC43) is listed as 27.7 µM and the IC90 (HSV-2) is listed as 19 µM. The IC90 (HCoV-229E) was > 50 µM and the IC90 (HSV-1) was 15.9 µM.

For FVPWFSKFlXRILC [DRAVPe00389], the IC90 (SARS-CoV-2 [1]) is listed as 12 µM, the IC90 (Measles virus(MeV)) is listed as > 50 µM and the IC90 [2] is listed as 10 µM. For the same substance, the IC90 (HSV-1) was 11.1 µM.

In the case of FVPWFSKFlXRILGGC [DRAVPe00390], the IC90 (SARS-CoV-2 [1]) is listed as 50 µM, the IC90 (Measles virus(MeV)) is listed as > 50 µM and the IC90 [2] is listed as 49.9 µM. The IC90 (HSV-1) was 48 µM.

For FVPWFSKFlwRIL [DRAVPe00386], the IC90 (SARS-CoV-2 [1]) is given as 14.8 µM, the IC90 (HCoV-OC43) is given as 17.4 µM and the IC90 (HSV-2) is given as 9.76 µM. The IC90 (HCoV-229E) was 50 µM and the IC90 (HSV-1) was 7.89 µM.

In the case of FVPWFSKFlxRIL [DRAVPe00382], the IC90 (SARS-CoV-2 [1]) is given as 17.4 µM, the IC90 (HCoV-OC43) is given as 24.7 µM and the IC90 (HSV-2) is given as 11.9 µM. The IC90 (HCoV-229E) was > 50 µM and the IC90 (HSV-1) was 12.8 µM.

For “IDISIELNKAKSDLEESKEWIRRSNQKLDSIGNWH [DRAVPe00930]”, the IC50 [3] is given as 1.5 µM and the IC50 [4] is given as 0.5 µM.

In the case of IPLRGAFINGRWDSQCHRFS [DRAVPe01801], the IC50 (influenza A virus(H1N1)) is listed as 12.9 µg/mL.

For IYALLENAEDYNLVN [DRAVPe01985], the IC50 (SARS-CoV-2 [5]) is listed as 0.009 ± 0.004 µM and the inhibition (SARS-CoV-2 [5]; at 25 µM) is listed as 100%.

In the case of KANEGLTWNSLKDK [DRAVPe01644], the EC50 (A/Roma-ISS/02/08 H1N1) is listed as 0.001 ± 0.00015 µM.

For NHEAEDLFY [DRAVPe01629], the inhibition (SARS-CoV) is given as 30%.

In the case of QDKHEEDYQMYNKGDKED [DRAVPe01982], the IC50 (SARS-CoV-2 [5]) is given as 0.018 ± 0.002 µM, the inhibition (SARS-CoV-2 [5]; at 0.39 µM) is given as 95% and the inhibition (SARS-CoV-2 [5]; at 25 µM) is given as 100%.

For RAVWRHSVATPSHSV [AVP0969], the IC50 (INFVA) is listed as > 500000 nM.

In the case of RRKKAAVALLPAVLLALLAP [AVP0554], the IC50 (INFVA) is listed as 8000 nM.

In the case of RRKKIFYFFR [AVP1759], the IC50 (INFVA) is listed as 155 nM.

For RRKKWLVFFVIFYFFR [AVP1754], the IC50 (INFVA) is listed as 0.04 nM.

For “SIELNKAKSDLEESKEWIRRSNQKLDSI [DRAVPe01316]”, the IC50 (Hendra virus(HeV) [6]) is listed as > 1 µM, the IC50 [3] is listed as > 10 µM and the IC50 [4] is listed as > 10 µM. For the same substance, the IC50 (Hendra virus(HeV) [7]) was > 10 µM.

In the case of SKHSSLDCVLRP [AVP1194], the EC50 (INFVA; fusion) is given as 4 ± 0.37 pM.

For SRDKHEEHEKENDRGQ [DRAVPe01986], the IC50 (SARS-CoV-2 [5]) is listed as 0.01 ± 0.005 µM and the inhibition (SARS-CoV-2 [5]; at 25 µM) is listed as 100%.

For “VALDPIDISIELNKAKSDLEESKEWIRR [DRAVPe01315]”, the IC50 (Hendra virus(HeV) [6]) is listed as > 1 µM, the IC50 [3] is listed as > 10 µM and the IC50 [4] is listed as > 10 µM. For the same substance, the IC50 (Hendra virus(HeV) [7]) was > 10 µM.

In the case of “VALDPIDISIELNKAKSDLEESKEWIRRSNQKLDSD [DRAVPe01313]”, the IC50 [3] is listed as 0.35 µM and the IC50 [4] is listed as 0.5 µM.

In the case of “VALDPIDISIELNKAKSDLEESKEWIRRSNQKLDSI [DRAVPe01311]”, the IC50 [3] is listed as 0.5 µM and the IC50 [4] is listed as 0.5 µM.

In the case of “VANDPIDISIELNKAKSDLEESKEWIRRSNQKLDSD [DRAVPe01314]”, the IC50 (Hendra virus(HeV) [6]) is given as > 1 µM, the IC50 [3] is given as 0.75 µM and the IC50 [4] is given as 1.1 µM. For the same substance, the IC50 (Hendra virus(HeV) [7]) was > 10 µM.

In the case of “VANDPIDISIELNKAKSDLEESKEWIRRSNQKLDSI [DRAVPe01312]”, the IC50 [3] is given as 0.75 µM and the IC50 [4] is given as 1.1 µM.

For WLVFFVIAYFAR [AVP1755], the IC50 (INFVA) is given as 0.87 nM.

In the case of WLVFFVIFYFFR [AVP1756], the IC50 (INFVA) is given as 93.6 nM.

For WLVFFVIFYFFRRRKK [AVP1753], the IC50 (INFVA) is given as 0.03 nM.

In the case of WLVFFVRRKK [AVP1806], the IC50 (INFVA) is given as 638 nM.
